Test [1] deals with axillae of healthy female volunteers. Put plainly: Antiperspirant efficacy, FDA hotroom protocol, gravimetric sweat collection. The test is classed as in vivo, human. Conditions: after four days of once-daily topical treatment, D4 vs D1 baseline. On the procedure: The antiperspirant efficacy and safety of investigated compounds were tested pursuant to protocol prescribed by the Food and Drug Administration, […] (Guidelines for Effectiveness Testing of OTC Antiperspirant Drug Products, 2004). The clinical study further conformed to Normative Resolution 196/96, CN/MS. The clinical study was divided into three tests and conducted with among at least thirty healthy female volunteers per test. They were between the ages of 18 and 50. The study was single-center, randomized, controlled, double blind assessment of the safety, tolerability and antiperspirant efficacy of TRPM8 agonists when applied to the axillae of healthy female volunteers. Before proceeding with the testing, all the volunteers were submitted to a “rest period” of 17 days, according to the FDA protocol. During this period, a placebo control formulation with no antiperspirancy effect was applied twice a day to both axillae. Treatments were applied once daily for four consecutive days (numbered D1 to D4). On D1, the baseline perspiration rate was determined before the antiperspirant formulations were applied. All the volunteers remained under hotroom conditions for a 40-minute warm-up period, divided into 2 periods of 20 minutes each. The term “hotroom condition” is the controlled environment (temperatures at 38° C.±1° C., and relative humidity of 35%±5%) established by the FDA standard protocol to thermally induce volunteer's perspiration. Cotton absorbent pads (Sussex®) were preweighed (P1) and placed in both axillae of each volunteer. At the end of the warm-up period, the perspiration collected on the absorbent pads was again weighed (P2) and the perspiration rates were obtained through gravimetric measurements (according to the formula P2-P1). According to FDA protocol, volunteers must produce at least 100 milligrams of sweat from the placebo control axilla in a 20-minute collection in the controlled environment, and at least one volunteer must produce more than 600 milligrams of sweat. Commercial menthol (YSC), Mentha essential oil (YSC) and Eucalyptus essential oil (Inter-Link) were presented as components of the antiperspirant formulations as described in the Example 1. Both commercial Mentha and Eucalyptus essential oils, which present menthol and eucalyptol, respectively, as the major components, were submitted to a GC-MS analysis in order to determine the appropriate amount of essential oils to be used to manufacture the antiperspirant compositions. In each treatment group as listed below, one of the antiperspirant formulations were applied to one axilla of the volunteers. […] Safety and tolerance were measured by assessment of visual effects and dermal irritancy, and subjective assessment of tolerance. […]

Test [2] relates to axilla odor of volunteers. Put plainly: Evaluation of deodorant effect (sniff test). The test is classed as in vivo, human. The following applies: at D4 vs D1, odor score 0-10 by two trained judges. How it is done:
The volunteers were submitted to a “rest period” as described previously in Example 2. The odor was evaluated for the volunteers at D1 and at D4. At D1 the evaluation was made before the application of the test formulations, after the 20-minute warm-up period, and only the volunteers with starting values not less than 2 were included in the test. The odor evaluation scoring system was based on a range of axilla odor from no malodor (0), to moderate malodor (5), to extremely strong malodor (10). Two trained judges, familiar with the procedures and rating system, subjectively made the odor measurements of both axillae of each volunteer. The data correspond to the individual subject scores by the two trained judges and to the individual average.

Data on one compound can be found in patent US20110223222A1, “Antiperspirant Compositions and Methods for Reducing Perspiration in Humans” (priority 2008, published 2011).

As for `CC1CCC(C(C)C)C(O)C1` (centres unmarked) [menthol], the “reduction in sweat production” value in test [1] (Group 1, one hour after application) is 61.4%±23.1; in test [1] (Group 2, two hours after application) it was 63.7%±21.8; in test [1] (Group 3, four hours after application), 63.7%±21.8; in test [1] (Group 3, four hours after application, listed as menthol (YSC)), 75%±12.1. Further, the “improvement in axilla odor” value in test [2] is 6.4%±25.3.
